Measured values from the supplement of paper PMC4932681.
“And” between values parts separate entries of the source, which are not always exact repeats. Identical values can stand only once.

Key:
Test in all cases: viability inhibition at highest dose (% inhibition); higher = more growth inhibition
T-47D Tam2 = details: 4-OH-tamoxifen in medium 1 µM; 72 h
Description: (§1)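 Percent inhibition of viability (CellTiter-Glo, 72 h) at the highest tested concentration (D5), normalised to DMSO (0%) and 100 µM benzethonium chloride (100%). Resistant lines and the 'in 1µM tamoxifen' arms were tested in 1 µM 4-OH-tamoxifen.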

ZR-75-1 Tam2 = details: 4-OH-tamoxifen in medium 1 µM; 72 h
Description: as §1

MCF-7 = details: 72 h
Description: as §1

MCF-7 Tam1 = details: 4-OH-tamoxifen in medium 1 µM; 72 h
Description: as §1

BT-474 Tam2 = details: 4-OH-tamoxifen in medium 1 µM; 72 h
Description: as §1

BT-474 Tam1 = details: 4-OH-tamoxifen in medium 1 µM; 72 h
Description: as §1

T-47D Tam1 = details: 4-OH-tamoxifen in medium 1 µM; 72 h
Description: as §1

T-47D = details: 72 h
Description: as §1

ZR-75-1 = details: 72 h
Description: as §1

BT-474 = details: 72 h
Description: as §1

ZR-75-1 Tam1 = details: 4-OH-tamoxifen in medium 1 µM; 72 h
Description: as §1

Row | Compound | viability inhibition at highest dose (T-47D Tam2) | viability inhibition at highest dose (ZR-75-1 Tam2) | viability inhibition at highest dose (MCF-7; 4-OH-tamoxifen in medium 0 µM) | viability inhibition at highest dose (MCF-7; 4-OH-tamoxifen in medium 1 µM) | viability inhibition at highest dose (MCF-7 Tam1) | viability inhibition at highest dose (BT-474 Tam2) | viability inhibition at highest dose (BT-474 Tam1) | viability inhibition at highest dose (T-47D Tam1) | viability inhibition at highest dose (T-47D; 4-OH-tamoxifen in medium 0 µM) | viability inhibition at highest dose (T-47D; 4-OH-tamoxifen in medium 1 µM) | viability inhibition at highest dose (ZR-75-1; 4-OH-tamoxifen in medium 0 µM) | viability inhibition at highest dose (ZR-75-1; 4-OH-tamoxifen in medium 1 µM) | viability inhibition at highest dose (BT-474; 4-OH-tamoxifen in medium 0 µM) | viability inhibition at highest dose (BT-474; 4-OH-tamoxifen in medium 1 µM) | viability inhibition at highest dose (ZR-75-1 Tam1)
1 | Cc1ccc(C(=O)N(CCCN)[C@@H](c2oc3cc(Cl)ccc3c(=O)c2Cc2ccccc2)C(C)C)cc1 (drug 100 nM) | 7.13 | -13.3 | 5.45 | 19.8 | -9.67 | -0.695 | -6.24 | -2.81 | -16.7 | -5.16 | -10.8 | -9.18 | -10.2 | -22.8 | -7.2
2 | CC(=O)Nc1cccc(-n2c(=O)n(C3CC3)c(=O)c3c(Nc4ccc(I)cc4F)n(C)c(=O)c(C)c32)c1 (drug 250 nM) | 26.5 | 1.99 | 2.23 | 17.3 | 10.6 | -15.8 | 8.35 | 12.5 | -2.33 | 10.4 | -3.05 | 5.16 | -8.37 | 18.2 | 2.29
3 | C=CC(=O)N1CCC[C@@H](n2nc(-c3ccc(Oc4ccccc4)cc3)c3c(N)ncnc32)C1 (drug 1000 nM) | 14.1 | 5.37 | -5.41 | 23 | -17.1 | 96.5 | 98.2 | 19.8 | -1.5 | -2.82 | 7.99 | 7.55 | 69.5 | 94.6 | 1.82
4 | CCN(CC)CCNC(=O)c1c(C)[nH]c(/C=C2\C(=O)Nc3ccc(F)cc32)c1C (drug 1000 nM) | 3.79 | 2.39 | -3.88 | -9.09 | 7.78 | 1.68 | 13.8 | 6.06 | -6.3 | 13.4 | 5.31 | -5.7 | -3.86 | 33.8 | -5.76
5 | CN1CCC(COc2cnc(-c3cccc(Cn4nc(-c5cccc(C#N)c5)ccc4=O)c3)nc2)CC1 (drug 1000 nM) | -1.11 | -3.94 | -4.34 | 13.2 | 7.93 | 8.15 | 4.43 | 57.5 | -10.4 | -5.78 | -2.72 | 2.17 | 2.72 | -6.04 | 0.277
6 | COc1ncc(-c2ccc3nccc(-c4ccnnc4)c3c2)cc1NS(=O)(=O)c1ccc(F)cc1F (drug 1000 nM) | 78 | 86.4 | 68.6 | 85 | 60.1 | 98 | 98.5 | 69.3 | 71.6 | 77.9 | 76.9 | 72.3 | 90 | 97.1 | 83
7 | Cc1ccc(C(=O)Nc2ccc(CN3CCN(C)CC3)c(C(F)(F)F)c2)cc1C#Cc1cnc2cccnn12 (drug 1000 nM) | 37.9 | 12 | 11.5 | 25.9 | 12.7 | 6 | 35.9 | 70.1 | 20.5 | 33.7 | 3.08 | 12 | -2.54 | 36.2 | 12.3
8 | Cc1cccc(-c2nn3c(c2-c2ccnc4ccc(C(N)=O)cc24)CCC3)n1 (drug 1000 nM) | -11.8 | 0.591 | -2 | 17.5 | -5.09 | -0.548 | -3.5 | 8.11 | -10.5 | -3.66 | -10.5 | -14.4 | -8.01 | -14 | -1.45
9 | Cc1cnc(NC(=O)Nc2cc(Br)c(C)cc2OC[C@@H]2CNCCO2)cn1 (drug 1000 nM) | -5.37 | -1.67 | 26.1 | 16.2 | -4.01 | -6.01 | 5 | -0.37 | -9.68 | -8.57 | -7.46 | -6.55 | -10.6 | 0.148 | -1.46
10 | Cn1cc(CNCC2CCN(c3ncc(C(=O)NO)cn3)CC2)c2ccccc21 (drug 1000 nM) | 71.1 | 48.7 | 89.3 | 90 | 21.6 | 74.7 | 83.8 | 86.6 | 94.3 | 94.1 | 47.6 | 37.9 | 88.3 | 94.3 | 37.4
11 | CNCc1ccc(-c2[nH]c3cc(F)cc4c3c2CCNC4=O)cc1 (drug 10000 nM) | 6.84 | 0.703 | 6.6 | 1.15 | -2.56 | -16.6 | 2.87 | 1.19 | -7.27 | -9.52 | -4.71 | -4.07 | -3.44 | -1.93 | -4.62
12 | COc1ccc(-c2cc3c(C)nc(N)nc3n([C@H]3CC[C@H](OCCO)CC3)c2=O)cn1 (drug 10000 nM) | 88.2 | 88.1 | 79.9 | 82.6 | 67.1 | 94.3 | 100 | 92.6 | 94.6 | 93.7 | 83.5 | 76.1 | 96.1 | 100 | 86.8
13 | Cc1nc(Nc2ncc(C(=O)Nc3c(C)cccc3Cl)s2)cc(N2CCN(CCO)CC2)n1 [Dasatinib] (drug 1000 nM) | 35.6 and 31.4 | -36.2 and -32.2 | – | 12.7 and 8.15 | – | – | 37.1 and 33.4 | 35.9 and 30.8 | – | 30.8 and 16.6 | -61.6 and -72.5 | -39.5 and -41.9 | – | 1.98 and 3.29 | -34.5 and -23.8
